Where “and” joins values, the source holds several entries; their conditions need not be identical. Identical values can stand only once.
Legend:
Oxa-induced colitis = assay: Oxazolone (Oxa)-induced colitis mouse model; format: in vivo; settings: for Colon length compared with Vehicle group / Colon wet weight compared with Vehicle group: Group Nos. 3 to 6 of Table 7, in words; for Colon length / Colon weight (wet weight per length): 6 days, day 7, mean ± SD
Source text: In this Example, mouse models to which oxazolone (4-ethoxymethylene-2-phenyl-2-oxazolin-5-on, hereinafter, Oxa) is used will be described as colitis models. When Oxa was first applied to skin, subsequently administered enterally after a certain period of time, an experimental ulcerative colitis model similar to human ulcerative colitis in terms of not only symptoms such as suppression of body weight increase, blood in stools, and anemia and formation of colon erosion but also immune cells was built (Non-Patent Literature 4). A suppression effect of Compound X on colitis in such a model as the test model showing pathological conditions more similar to human ulcerative colitis was examined. For the examination items, the length and weight of the colon were examined as changes in colon properties are widely known to occur also in this model.
For treatment, Balb/c, male mice were purchased from CHARLES RIVER LABORATORIES JAPAN, INC. in accordance with previous literature (Non-Patent Literature 5) and 8-week old mice with no abnormal general conditions during quarantine and acclimation period were used for the experiment. After acclimation, the animals were divided in such a way as to be 1 mouse per cage. Oxa used in the experiment was purchased from Sigma.
Fur at back of the neck was shaved in an area of 1.5×1.5 cm under anesthesia, and 150 μL (a 100% ethanol solution) of 3% (wt/vol) Oxa was added using a pipette and applied between the shoulders to sensitize (Day 1). The mice were kept under such a typical breeding environment, fasted for 16 hours from Day 7 (water supply was continued), and subsequently on Day 8 100 μL of a solution of 1% (wt/vol) Oxa in 50% ethanol was transanally administered into the rectum (3.5 cm from the anus) using a catheter under anesthesia. Hereinafter, the above treatment is described as Oxa treatment. After treatment, typical feeding breeding was carried out.
Starting on the day following intrarectal administration of Oxa, test substances were orally administered (once daily, for 6 days). 5-Aminosalicylic acid (hereinafter 5-ASA, Tokyo Chemical Industry, Co., Ltd.) and prednisolone (hereinafter, PSL, Sigma), which are anti-inflammatory agents used for treating ulcerative colitis, were used as positive controls for the test. After group division, each of the test substances of Table 6 was suspended in a solution of 0.5% sodium carboxymethyl cellulose (hereinafter, CMC, Nacalai Tesque Inc.) in such a way as to be each treatment of Table 6 and orally administered once daily. […] These control groups, Groups 1 and 2, were orally administered, as the test substance, with the 0.5% CMC solution which was used as the medium.
The test started with 6 mice in Group No. 1 and 9 mice each in Group Nos. 2 to 6. After the treatment started, death of animals in Group Nos. 2 to 6 due to the cause considered enteritis from Oxa treatment was observed and thus 6 mice in Group Nos. 1 and 3, and 5 mice in Group Nos. 2 and 6, and 7 mice in Group Nos. 4 and 5 were finally used for analysis.
(§1) It is generally acknowledged as a known fact that Oxa treatment causes colon tissue changes such as the length of colon is shortened while the weight increases. For evaluating the therapeutic effect of Compound X, the length and weight of the colon were measured. The mice were euthanized under anesthesia on day 7 of Oxa treatment and dissected to remove the colon. The removed colon was quickly measured for a length in a relaxed state. Subsequently, feces in the intestinal tract were removed and sufficiently washed with phosphate buffered saline (Wako Pure Chemical Industries, Ltd.) and measured for a wet weight.

DSS-induced colitis = DSS-induced colitis mouse model (experimental ulcerative colitis); format: in vivo; settings: for Fecal scoring average value: score 0-3
Description: In this Example, mouse models to which dextran sulfate sodium salt (DSS) is used will be described as colitis models. When DSS is administered by being mixed in drinking water of the mouse, an experimental ulcerative colitis model similar to human ulcerative colitis in terms of symptoms such as suppression of body weight increase, blood in stools, and anemia and formation of colon erosion and further lacking intestinal lesion was build (Non-Patent Literature 3). A suppression effect of Compound X on colitis in such a model as the representative colitis model was examined. For the evaluation items, recovery from diarrhea and body weight loss by colitis, and the length and weight of the colon were examined as changes in colon properties, which are widely known to occur by DSS-induced colitis.
For treatment, C57BL/6J, male mice were purchased from CHARLES RIVER LABORATORIES JAPAN, INC. in accordance with previous literature (Non-Patent Literature 2) and 5-week old mice with no abnormal general conditions during quarantine and acclimation period were used for the experiment. After acclimation, the animals were divided in such a way as to be 1 mouse per cage. DSS used in the experiment having a molecular weight of from 36,000 to 50,000 Da was purchased from MP Bio Japan. DSS was added to tap water in such a way as to be 3% and suspended for causing colitis. The suspension was prepared once every 3 days and freely provided to each of the mice as water supply. A solution from which DSS was removed was provided as water supply to a non-pathological control group.
After group division, each of the test substances of Table 1 was suspended in a solution of 0.5% sodium carboxymethyl cellulose (hereinafter, CMC, Nacalai Tesque Inc.) in such a way as to be each treatment of Table 1 and orally administered once daily. […] These control groups, Groups 1 and 2, were orally administered, as the test substance, with the 0.5% CMC solution used as the medium.
Drinking water after the group division was typical water for drinking.
The test started with 6 mice in Group No. 1 and 10 mice each in Group Nos. 2 to 6.
Body weights were measured on the DSS administration starting day (day −5), DSS administration last day (day 0), on day 3, day 5, day 8, and day 10 of test substance administration.
The therapeutic effect was evaluated by observing changes in blood in stools caused by enteritis as the body weight recovery alone can be considered that the body weight increase might have been promoted simply by the growth. Mice feces were observed on the DSS administration starting day (day-5), DSS administration last day (day 0), on day 3, day 5, day 8, and day 10 of test substance administration and scored in accordance with the criteria of Table 2.
as §1, with “For” for “It is generally acknowledged as a known fact that Oxa treatment causes colon tissue changes such as the length of colon is shortened while the weight increases. For”, “10” for “7”, “test substance administration” for “Oxa treatment”

[1] = Oxa treatment + 5 mg/kg/day oral, 5 mg/kg/day
[2] = Oxa treatment + 50 mg/kg/day oral, 50 mg/kg/day
[3] = DSS + 50 mg/kg/day oral, day 3, mean ± SD
[4] = DSS + 50 mg/kg/day oral, day 5, mean ± SD

Row | SMILES | Colon length compared with Vehicle group (Oxa-induced colitis) | Colon wet weight compared with Vehicle group (Oxa-induced colitis) | Colon length (Oxa-induced colitis; [1]) | Colon weight (wet weight per length) (Oxa-induced colitis; [1]) | Colon length (Oxa-induced colitis; [2]) | Colon weight (wet weight per length) (Oxa-induced colitis; [2]) | Body weight recovery compared with the DSS administration only (DSS-induced colitis; 50 mg/kg/day oral, in words) | Time-dependent changes in blood feces score versus DSS administration group (DSS-induced colitis; 50 mg/kg/day oral, in words) | Fecal scoring average value (DSS-induced colitis; DSS + 50 mg/kg/day oral, day 0 (DSS last day), mean ± SD) | Body weight (DSS-induced colitis; [3]) | Fecal scoring average value (DSS-induced colitis; [3]) | Body weight (DSS-induced colitis; [4]) | Fecal scoring average value (DSS-induced colitis; [4]) | Fecal scoring average value (DSS-induced colitis; DSS + 50 mg/kg/day oral, day 8, mean ± SD) | Colon length (DSS-induced colitis; DSS + 50 mg/kg/day oral, day 10, mean ± SD, 50 mg/kg/day) | Fecal scoring average value (DSS-induced colitis; DSS + 50 mg/kg/day oral, day 10, mean ± SD) | Fecal scoring average value (DSS-induced colitis; DSS + 50 mg/kg/day oral, day −5 (before test substance), mean ± SD) | Colon length compared with DSS group (DSS-induced colitis; Group Nos. 3 to 5 (1, 10, 100 mg/kg/day) and Group No. 6 (50 mg/kg/day), in words) | Colon wet weight compared with DSS group (DSS-induced colitis; all treated groups of Table 5, in words)
1 | C[C@]12C=CC(=O)C=C1CC[C@@H]1[C@@H]2[C@@H](O)C[C@@]2(C)[C@H]1CC[C@]2(O)C(=O)CO [PSL, prednisolone] | longer length of the colon than Vehicle group | suppressed weight increases compared with Vehicle group | 8.20 cm and 8.20 ± 0.52 cm | 3.37 mg/mm and 3.37 ± 0.36 mg/mm | – | – | – | – | – | – | – | – | – | – | – | – | – | – | –
2 | Nc1ccc(O)c(C(=O)O)c1 [Compound 5-ASA, 5-Aminosalicylic acid, reference compound] | longer length of the colon than Vehicle group | suppressed weight increases compared with Vehicle group | – | – | 7.41 cm and 7.41 ± 0.37 cm | 4.12 mg/mm and 4.12 ± 0.56 mg/mm | significant body weight recovery | did not have a difference | 1.0 ± 0.0 | 15.5 ± 1.0 g | 1.5 ± 0.5 | 16.4 ± 1.7 g | 1.8 ± 1.0 | 0.0 ± 0.0 | 6.54 cm and 6.54 ± 0.29 cm | 0.0 ± 0.0 | 0.0 ± 0.0 | longer length of the colon than DSS group | suppressed weight increases compared with DSS group

Reference: US20210052537A1, “COLITIS AMELIORATING AGENT” (ASTA PHARMACEUTICALS, CO., LTD., priority 2018, published 2021)
